# Measured values reported in patent US12473304B2, “Heterocyclic PAD4 inhibitors” (BRISTOL-MYERS SQUIBB COMPANY, priority 2020, dated 2025).
# Molecular target: human PAD4 (hPAD4) (Homo sapiens (Human), UniProt Q9UM07)
# Assay: RFMS Human PAD4 Functional Assay 1
# Assay type: biochemical
# Conditions: RFMS assay 1; 5 nM hPAD4, 250 μM BAEE substrate, 50 μM calcium, 37° C.
# Method in brief: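 Citrullination product read by RapidFire triple-quad MRM against a modified-citrulline internal standard, after TCA stop and 30 min phenyl glyoxal step at 37 °C. Reaction: 250 μM BAEE, 5 nM human PAD4, 90 min at 37 °C, pH 7.5 HEPES buffer with 50 μM calcium and 5 μM TPEN, following 30 min compound–enzyme preincubation (max 50 μM).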
# human PAD4 (hPAD4), sequence (Q9UM07 whole entry): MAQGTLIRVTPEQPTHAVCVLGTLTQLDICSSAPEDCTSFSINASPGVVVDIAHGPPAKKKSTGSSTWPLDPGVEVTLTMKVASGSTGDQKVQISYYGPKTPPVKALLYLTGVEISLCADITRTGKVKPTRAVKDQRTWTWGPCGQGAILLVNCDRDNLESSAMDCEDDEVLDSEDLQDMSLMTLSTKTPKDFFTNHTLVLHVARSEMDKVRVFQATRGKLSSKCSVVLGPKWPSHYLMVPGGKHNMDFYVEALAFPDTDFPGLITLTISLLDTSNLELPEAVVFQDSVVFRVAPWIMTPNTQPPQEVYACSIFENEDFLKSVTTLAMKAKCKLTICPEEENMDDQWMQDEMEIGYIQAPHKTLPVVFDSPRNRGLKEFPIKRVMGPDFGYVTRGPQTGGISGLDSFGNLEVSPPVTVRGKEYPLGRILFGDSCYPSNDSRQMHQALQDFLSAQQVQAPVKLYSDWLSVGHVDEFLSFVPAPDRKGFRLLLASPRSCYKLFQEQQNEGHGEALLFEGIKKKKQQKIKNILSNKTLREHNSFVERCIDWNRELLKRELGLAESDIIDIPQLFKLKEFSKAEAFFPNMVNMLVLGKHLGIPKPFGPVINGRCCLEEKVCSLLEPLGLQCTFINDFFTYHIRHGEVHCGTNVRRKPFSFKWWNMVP
row,IC50 [µM],Compound
1,7.39,"COc1cc(C(=O)N2CCC[C@@H](N)C2)cn2nc(-c3cc4ccnc(OCC5COC5)c4n3CC3CC3)c(C)c12 [Example 596, (R)-(3-Aminopiperidin-1-yl)(2-(1-(cyclopropylmethyl)-7-(oxetan-3-ylmethoxy)-1H-pyrrolo[2,3-c]pyridin-2-yl)-4-methoxy-3-methylpyrazolo[1,5-a]pyridin-6-yl)methanone]"
2,0.01,"COc1cc(C(=O)N2C[C@H](N)C[C@@H](F)C2)cn2nc(-c3cc4ccnc(OCCn5ccnc5)c4n3CC3CC3)c(C)c12 [Example 597, (2-(7-(2-(1H-Imidazol-1-yl)ethoxy)-1-(cyclopropylmethyl)-1H-pyrrolo[2,3-c]pyridin-2-yl)-4-methoxy-3-methylpyrazolo[1,5-a]pyridin-6-yl)((3R,5R)-3-amino-5-fluoropiperidin-1-yl)methanone]"
3,0.02,"COc1cc(C(=O)N2CCC[C@@H](N)C2)cn2nc(-c3cc4ccnc(OCCn5ccnc5)c4n3CC3CC3)c(C)c12 [Example 598, (R)-(2-(7-(2-(1H-Imidazol-1-yl)ethoxy)-1-(cyclopropylmethyl)-1H-pyrrolo[2,3-c]pyridin-2-yl)-4-methoxy-3-methylpyrazolo[1,5-a]pyridin-6-yl)(3-aminopiperidin-1-yl)methanone]"
4,0.02,"COc1cc(C(=O)N2CCC[C@@H](N)C2)cn2nc(-c3cc4ccnc(OCCn5cnnc5)c4n3CC3CC3)c(C)c12 [Example 599, (R)-(2-(7-(2-(4H-1,2,4-Triazol-4-yl)ethoxy)-1-(cyclopropylmethyl)-1H-pyrrolo[2,3-c]pyridin-2-yl)-4-methoxy-3-methylpyrazolo[1,5-a]pyridin-6-yl)(3-aminopiperidin-1-yl)methanone]"
5,0.03,"COc1cc(C(=O)N2C[C@H](N)C[C@@H](F)C2)cn2nc(-c3cc4ccnc(OCCn5cnnc5)c4n3CC3CC3)c(C)c12 [Example 600, (2-(7-(2-(4H-1,2,4-Triazol-4-yl)ethoxy)-1-(cyclopropylmethyl)-1H-pyrrolo[2,3-c]pyridin-2-yl)-4-methoxy-3-methylpyrazolo[1,5-a]pyridin-6-yl)((3R,5R)-3-amino-5-fluoropiperidin-1-yl)methanone]"
6,0.03,"COc1cc(C(=O)N2CC3CCC2[C@@H]3N)cn2nc(-c3cc4ccnc(OC[C@H]5CCC(=O)N5)c4n3CC3CC3)c(C)c12 (stereo partly drawn) [Example 604, (5R)-5-(((2-(6-((7R)-7-Amino-2-azabicyclo[2.2.1]heptane-2-carbonyl)-4-methoxy-3-methylpyrazolo[1,5-a]pyridin-2-yl)-1-(cyclopropylmethyl)-1H-pyrrolo[2,3-c]pyridin-7-yl)oxy)methyl)pyrrolidin-2-one]"
7,0.04,"Cc1c(-c2cc3ccnc(OCCn4cnnc4)c3n2CC2CC2)nn2cc(C(=O)N3CCC[C@@H](N)C3)ccc12 [Example 609, (R)-(2-(7-(2-(4H-1,2,4-Triazol-4-yl)ethoxy)-1-(cyclopropylmethyl)-1H-pyrrolo[2,3-c]pyridin-2-yl)-3-methylpyrazolo[1,5-a]pyridin-6-yl)(3-aminopiperidin-1-yl)methanone]"
8,0.43,"Cc1c(-c2cc3ccnc(OCCn4cncn4)c3n2CC2CC2)nn2cc(C(=O)N3C[C@H](N)C[C@@H](F)C3)ccc12 [Example 610, (2-(7-(2-(1H-1,2,4-Triazol-1-yl)ethoxy)-1-(cyclopropylmethyl)-1H-pyrrolo[2,3-c]pyridin-2-yl)-3-methylpyrazolo[1,5-a]pyridin-6-yl)((3R,5R)-3-amino-5-fluoropiperidin-1-yl)methanone]"
9,1.56,"Cc1c(-c2cc3ccnc(OCCn4ccnc4C)c3n2CC2CC2)nn2cc(C(=O)N3C[C@H](N)C[C@@H](F)C3)ccc12 [Example 611, ((3R,5R)-3-Amino-5-fluoropiperidin-1-yl)(2-(1-(cyclopropylmethyl)-7-(2-(2-methyl-1H-imidazol-1-yl)ethoxy)-1H-pyrrolo[2,3-c]pyridin-2-yl)-3-methylpyrazolo[1,5-a]pyridin-6-yl)methanone]"
